Test system: 186277-243-T-J2-PDC complex spheroid viability
Experiment: Anticancer human tumor 186277-243-T-J2-PDC patient-derived colon adenocarcinoma cell line growth inhibition
Details: for IC50: curve of first compound; for viability, T/C: stronger effect = lower value
Description: Multicellular complex tumor spheroid response to LSD1 Inhibitor Iadademstat in combination with a variety of drugs and investigational agents in selected tumor cell lines
The current study was undertaken to assess response to LSD1 inhibitors in combination with standard-of-care drugs and investigational agents in solid tumor complex spheroid models as well as in the K-562 leukemia. Complex spheroids include a stromal component modeled by human endothelial cells (HUVEC) and fibroblasts modeled by human mesenchymal stem cells (MSCs). The concentration ranges selected for each drug and investigational agent were based upon clinically achievable concentrations if the clinical Cmax of the agent was known.
Compounds. The drugs and investigational agents used in this study are listed on Table 1. All of the agents used, including staurosporine (NSC755774) and gemcitabine (NSC613327), were obtained from the Developmental Therapeutics Program, NCI. FDA-approved anticancer drugs are available from the NCI at http://dtp.nci.nih.gov/branches/dscb/oncology_drugset_explanation.html. Drugs and investigational agents were >95% pure by proton nuclear magnetic resonance (NMR) and liquid chromatography/mass spectrometry (LC/MS). Stock solutions were prepared at 400x in DMSO, stored at -70 degrees C, and diluted in fresh medium prior to their use. The final concentration of DMSO in cell culture wells never exceeded 0.25% (v/v). The FDA-approved anticancer drug set is available from the Developmental Therapeutics Program at https://dtp.cancer.gov/organization/dscb/obtaining/available_plates.htm. All drugs and investigational agents were tested over a range starting from a high concentration at or near the clinical Cmax and decreasing in half-log increments. If the clinical Cmax for an agent had not been determined, the highest concentration tested was 10 microM.
Cell Lines. The patient-derived cancer cell (PDC) lines: 292921-168-R-J2-PDC, K24384-001-R-PDC, and 521955-158-R2-J5-PDC pancreatic carcinomas, 556581-035-R-J1 ovarian carcinoma, 324938-238-R-J1-PDC, 855422-203-R-J1-PDC and 883617-216-R-J1-PDC urothelial bladder carcinomas, 743489-274-T-PDC renal cell carcinoma, 138582-R-J1 Merkel cell tumor, K60290-347-R-J1 and K57222-313-R-J1-PDC glioblastomas, 653999-131-R-J2-PDC, LG0703-F948-PDC, and 349418-098-R-PDC non-small cell lung carcinomas, 885512-296-R-J2-PDC, 171881-019-R-J1-PDC breast carcinomas and 186277-243-T-J2-PDC and 233499-124-R-J2-PDC colon carcinomas were obtained from the NCI Patient-Derived Models Repository (PDMR, https://pdmr.cancer.gov). The established cell lines NCI/ADR-RES (RRID:CVCL_14520 and OVCAR-5 (RRID:CVCL_1628) ovarian carcinomas, 786-O (RRID:CVCL_1051) and A498 (RRID:CVCL_A498) renal cell carcinoma, NCI-H211 (ATCC, cat. CRL-5824; RRID:CVCL_1529), NCI-H196 (ATCC, cat. CRL-5823, RRID:CVCL_1509), SW 1271 (ATCC, cat. CRL-2177, RRID:CVCL_1716) and NCI-H1876 (ATCC, cat. CRL-5902, RRID:CVCL_1503) small cell lung carcinomas, MDA-MB-231 (RRID:CVCL_0062) and MDA-MB-468 (RRID:CVCL_0419)breast carcinomas (10-12). Pooled donor human umbilical vein endothelial cells (HUVEC, Lonza, cat. CC-2519) and human mesenchymal stem cells (hMSC, Lonza, cat. PT-2501) were purchased from Lonza (Walkersville, MD).
Cell Culture. All cells were maintained in an incubator at 37 degrees C and 5% CO2 with 95% humidity. The PDC lines were cultured according to standard operating procedures established by the NCI PDMR (https://pdmr.cancer.gov). Briefly all PDCs were thawed and cultured in Matrigel-coated flasks prepared with a working solution of 1X Ham's F-12 nutrient mix, without supplementation (Invitrogen, Waltham, MA, cat. 11765054), 100 U/mL penicillin-streptomycin (Invitrogen, cat. 15140122), and 2.5% Matrigel (Corning Inc., Corning, NY, cat. 354248) for the first three passages. […]

[1] = second compound 0.1 µM, first compound 0.00316 µM
[2] = second compound 0.1 µM, first compound 0.01 µM
[3] = second compound 0.1 µM, first compound 0.0316 µM
[4] = second compound 0.1 µM, first compound 0.1 µM
[5] = second compound 0.316 µM, first compound 0.00316 µM
[6] = second compound 0.316 µM, first compound 0.01 µM
[7] = second compound 0.316 µM, first compound 0.0316 µM
[8] = second compound 0.316 µM, first compound 0.1 µM
[9] = second compound 1 µM, first compound 0.00316 µM
[10] = second compound 1 µM, first compound 0.01 µM
[11] = second compound 1 µM, first compound 0.0316 µM
[12] = second compound 1 µM, first compound 0.1 µM
[13] = second compound 3.16 µM, first compound 0.00316 µM
[14] = second compound 3.16 µM, first compound 0.01 µM
[15] = second compound 3.16 µM, first compound 0.0316 µM
[16] = second compound 3.16 µM, first compound 0.1 µM
[17] = second compound 10 µM, first compound 0.00316 µM
[18] = second compound 10 µM, first compound 0.01 µM
[19] = second compound 10 µM, first compound 0.0316 µM
[20] = second compound 10 µM, first compound 0.1 µM
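Note: 7 day exposure to compounds.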
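Throughout, for viability, T/C: 100% = DMSO vehicle control viability.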

For `CC[C@@]1(O)C(=O)OCc2c1cc1n(c2=O)Cc2cc3c(CN(C)C)c(O)ccc3nc2-1` + NC1CC1c1ccc(-c2cccc(O)c2)cc1, the IC50 (second compound 0.1 µM) was 64.1 nM, the IC50 (second compound 0.316 µM) was 58.6 nM and the IC50 (second compound 1 µM) was 60.9 nM. For the same molecule, the IC50 (second compound 3.16 µM) was 64.4 nM, the IC50 (second compound 10 µM) was 56.7 nM and the viability, T/C (second compound 0.1 µM, first compound 0.000316 µM) was 117%. It also gave a viability, T/C (second compound 0.1 µM, first compound 0.001 µM) of 125%, a viability, T/C [1] of 153% and a viability, T/C [2] of 116%. It also gave a viability, T/C [3] of 74.5%, a viability, T/C [4] of 34.9% and a viability, T/C (second compound 0.316 µM, first compound 0.000316 µM) of 101%. For the same molecule, the viability, T/C (second compound 0.316 µM, first compound 0.001 µM) was 96.5%, the viability, T/C [5] was 139% and the viability, T/C [6] was 118%. It also gave a viability, T/C [7] of 71.7%, a viability, T/C [8] of 31.2% and a viability, T/C (second compound 1 µM, first compound 0.000316 µM) of 90.7%. The viability, T/C (second compound 1 µM, first compound 0.001 µM) was 108%, the viability, T/C [9] was 127% and the viability, T/C [10] was 119%. It also gave a viability, T/C [11] of 73.1%, a viability, T/C [12] of 32.5% and a viability, T/C (second compound 3.16 µM, first compound 0.000316 µM) of 101%. The viability, T/C (second compound 3.16 µM, first compound 0.001 µM) was 97.8%, the viability, T/C [13] was 119% and the viability, T/C [14] was 131%. It also gave a viability, T/C [15] of 76.3%, a viability, T/C [16] of 33.6% and a viability, T/C (second compound 10 µM, first compound 0.000316 µM) of 103%. The viability, T/C (second compound 10 µM, first compound 0.001 µM) was 96.4%, the viability, T/C [17] was 123% and the viability, T/C [18] was 116%. For the same molecule, the viability, T/C [19] was 74% and the viability, T/C [20] was 26.7%.

`COc1cc(C2c3cc4c(cc3C(OC3OC5COC(C)OC5C(O)C3O)C3COC(=O)C23)OCO4)cc(OC)c1O` (stereo not given) + NC1CC1c1ccc(-c2cccc(O)c2)cc1 gave an IC50 (second compound 0.1 µM) of 596 nM, an IC50 (second compound 0.316 µM) of 586 nM and an IC50 (second compound 1 µM) of 667 nM. The IC50 (second compound 3.16 µM) was 635 nM, the IC50 (second compound 10 µM) was 458 nM and the viability, T/C (second compound 0.1 µM, first compound 0.00949 µM) was 107%. The viability, T/C (second compound 0.1 µM, first compound 0.03 µM) was 134%, the viability, T/C (second compound 0.1 µM, first compound 0.0949 µM) was 116% and the viability, T/C (second compound 0.1 µM, first compound 0.3 µM) was 73.7%. The viability, T/C (second compound 0.1 µM, first compound 0.949 µM) was 36.2%, the viability, T/C (second compound 0.1 µM, first compound 3 µM) was 17.4% and the viability, T/C (second compound 0.316 µM, first compound 0.00949 µM) was 103%. For the same molecule, the viability, T/C (second compound 0.316 µM, first compound 0.03 µM) was 134%, the viability, T/C (second compound 0.316 µM, first compound 0.0949 µM) was 118% and the viability, T/C (second compound 0.316 µM, first compound 0.3 µM) was 73%. For the same molecule, the viability, T/C (second compound 0.316 µM, first compound 0.949 µM) was 36.6%, the viability, T/C (second compound 0.316 µM, first compound 3 µM) was 18% and the viability, T/C (second compound 1 µM, first compound 0.00949 µM) was 99.7%. It also gave a viability, T/C (second compound 1 µM, first compound 0.03 µM) of 134%, a viability, T/C (second compound 1 µM, first compound 0.0949 µM) of 121% and a viability, T/C (second compound 1 µM, first compound 0.3 µM) of 80.9%. For the same molecule, the viability, T/C (second compound 1 µM, first compound 0.949 µM) was 38.6%, the viability, T/C (second compound 1 µM, first compound 3 µM) was 17.7% and the viability, T/C (second compound 3.16 µM, first compound 0.00949 µM) was 100%. The viability, T/C (second compound 3.16 µM, first compound 0.03 µM) was 137%, the viability, T/C (second compound 3.16 µM, first compound 0.0949 µM) was 133% and the viability, T/C (second compound 3.16 µM, first compound 0.3 µM) was 79%. The viability, T/C (second compound 3.16 µM, first compound 0.949 µM) was 39.9%, the viability, T/C (second compound 3.16 µM, first compound 3 µM) was 17.4% and the viability, T/C (second compound 10 µM, first compound 0.00949 µM) was 94.3%. It also gave a viability, T/C (second compound 10 µM, first compound 0.03 µM) of 146%, a viability, T/C (second compound 10 µM, first compound 0.0949 µM) of 119% and a viability, T/C (second compound 10 µM, first compound 0.3 µM) of 64.1%. The viability, T/C (second compound 10 µM, first compound 0.949 µM) was 29.9% and the viability, T/C (second compound 10 µM, first compound 3 µM) was 11.2%.

`Nc1ncn(C2CC(O)C(CO)O2)c(=O)n1` (stereo not given) + NC1CC1c1ccc(-c2cccc(O)c2)cc1 was tested, and the IC50 (second compound 0.1 µM) was > 1000 nM, the IC50 (second compound 0.316 µM) was > 1000 nM and the IC50 (second compound 1 µM) was > 1000 nM. For the same molecule, the IC50 (second compound 3.16 µM) was > 1000 nM, the IC50 (second compound 10 µM) was > 1000 nM and the viability, T/C [1] was 108%. For the same molecule, the viability, T/C [2] was 103%, the viability, T/C [3] was 112% and the viability, T/C [4] was 106%. For the same molecule, the viability, T/C (second compound 0.1 µM, first compound 0.316 µM) was 148%, the viability, T/C (second compound 0.1 µM, first compound 1 µM) was 159% and the viability, T/C [5] was 100%. For the same molecule, the viability, T/C [6] was 102%, the viability, T/C [7] was 114% and the viability, T/C [8] was 138%. It also gave a viability, T/C (second compound 0.316 µM, first compound 0.316 µM) of 143%, a viability, T/C (second compound 0.316 µM, first compound 1 µM) of 150% and a viability, T/C [9] of 104%. It also gave a viability, T/C [10] of 109%, a viability, T/C [11] of 107% and a viability, T/C [12] of 119%. It also gave a viability, T/C (second compound 1 µM, first compound 0.316 µM) of 137%, a viability, T/C (second compound 1 µM, first compound 1 µM) of 157% and a viability, T/C [13] of 100%. It also gave a viability, T/C [14] of 95.5%, a viability, T/C [15] of 97.3% and a viability, T/C [16] of 121%. The viability, T/C (second compound 3.16 µM, first compound 0.316 µM) was 140%, the viability, T/C (second compound 3.16 µM, first compound 1 µM) was 162% and the viability, T/C [17] was 110%. It also gave a viability, T/C [18] of 107%, a viability, T/C [19] of 98.6% and a viability, T/C [20] of 112%. The viability, T/C (second compound 10 µM, first compound 0.316 µM) was 124% and the viability, T/C (second compound 10 µM, first compound 1 µM) was 148%.

— PubChem BioAssay AID1918933 (Molecular Pharmacology Branch, DTP, NCI, 2023)
